A word on the IC50: it is the point on the concentration scale where inhibition reaches its midpoint. Lower therefore signals higher potency.

ROR gamma ligand-binding domain (hRORg), sequence (P51449 269-508): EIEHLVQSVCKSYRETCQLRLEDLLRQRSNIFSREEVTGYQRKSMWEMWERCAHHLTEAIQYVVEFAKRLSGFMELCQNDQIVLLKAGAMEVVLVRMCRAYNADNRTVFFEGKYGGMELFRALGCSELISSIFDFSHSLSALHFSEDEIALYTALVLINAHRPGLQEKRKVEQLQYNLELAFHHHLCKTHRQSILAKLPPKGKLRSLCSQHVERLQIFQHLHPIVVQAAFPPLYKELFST

In the assay the target is ROR gamma ligand-binding domain (hRORg) (Homo sapiens (Human), UniProt P51449). The assay is described as follows: GAL4-RORγ transactivation (luciferase reporter, HG5LN HeLa line). The format is cell-based. To be noted: 18 hours incubation. An excerpt:
GAL4-RORγ Transactivation
The RORγ transactivation model was developed from the line HG5LN, which is a HeLa line that stably expresses a luciferase reporter gene controlled by a pentamer of the GAL4 recognition domain of yeast and of a β-globin promoter. The HG5LN line was stably transfected by the DNA-binding domain (DBD) of GAL4 fused to the ROR gamma ligand-binding domain (LBD). Molecules that inhibit the ROR gamma constitutive activity reduce the luciferase expression, thus leading to a reduction in the emitted luminescence.
The cells are seeded in 384-well plates (5000 cells in 45 μL/well of culture medium containing 10% fetal calf serum) and incubated for 4 hours at 37° C., 5% CO2. 5 μL of the test molecules (compounds described in the tables described above) are then added to each well and the plates are incubated for 18 hours at a temperature of 37° C. under 5% of CO2. 20 μL of luciferase substrate (Promega) are added to each well and the luminescence emitted is read by a microplate reader.
The luminescence units (“RLU”) are normalized by positive controls (“POS” containing a saturated concentration of benzenesulfonamide, N-(2,2,2-trifluoroethyl)-N-[4-[2,2,2-trifluoro-1-hydroxy-1-(trifluoromethyl)ethyl]phenyl]) and negative controls (“NEG” containing DMSO): % inhibition=((RLU−NEG)*100)/(POS−NEG). The IC50 values are calculated from a 4-parameter logistic model using the XLFit software (IDBS).
(In general: In a reporter assay the amount or activity of a reporter protein is the signal.)
Take `CCc1ccc(N(CC(C)C)S(=O)(=O)c2ccc3c(c2)N(CC2CCOCC2)C(=O)C[S+]3[O-])cc1` (stereo not drawn) [compound 4, 1,3-dioxo-4-(tetrahydropyran-4-ylmethyl)-1,2,3,4-tetrahydro-1λ^4-benzo[1,4]thiazine-6-sulfonic acid (4-ethylphenyl)isobutylamide]: the IC50 was more than 1000 nM. On to `CCc1ccc(N(CC(C)C)S(=O)(=O)c2ccc3c(c2)N(CC2CCOCC2)CCS3)cc1` [compound 6, 4-(tetrahydropyran-4-ylmethyl)-3,4-dihydro-2H-benzo[1,4]thiazine-6-sulfonic acid (4-ethylphenyl)isobutylamide], for which the IC50 was more than 1000 nM. Compound `CCc1ccc(N(CC(C)C)S(=O)(=O)c2ccc3c(c2)NCCS3)cc1` [compound 9, 3,4-dihydro-2H-benzo[1,4]thiazine-6-sulfonic acid (4-ethylphenyl)isobutylamide] returned an IC50 of more than 1000 nM. Compound `CCc1ccc(N(CC(C)C)S(=O)(=O)c2ccc3c(c2)NC(=O)CS3)cc1` [compound 10, 3-oxo-3,4-dihydro-2H-benzo[1,4]thiazine-6-sulfonic acid (4-ethylphenyl)isobutylamide] had an IC50 of more than 1000 nM. Compound `CCc1ccc(N(CC(C)C)S(=O)(=O)c2ccc([S+]([O-])CC3CCOCC3)c(C(=O)OC)c2)cc1` (stereo not drawn) [compound 16, methyl 5-[(4-ethylphenyl)isobutylsulfamoyl]-2-(tetrahydropyran-4-ylmethanesulfinyl)benzoate] came in with a half-inhibitory concentration (IC50) of more than 1000 nM.

Take `CCc1ccc(N(CC(C)C)S(=O)(=O)c2ccc(SCC3CCOCC3)c(C(=O)OC)c2)cc1` [compound 17, methyl 5-[(4-ethylphenyl)isobutylsulfamoyl]-2-(tetrahydropyran-4-ylmethylsulfanyl)benzoate]: the IC50 was more than 1000 nM.

`CCc1ccc(N(CC(C)C)S(=O)(=O)c2ccc(OCC3CCOCC3)c([S+]([O-])CC)c2)cc1` (stereo not drawn) [compound 22, ethanesulfinyl-N-(4-ethylphenyl)-N-isobutyl-4-(tetrahydropyran-4-ylmethoxy)benzenesulfonamide]: the IC50 fell in the range of 100 to 1000 nM. `CCc1ccc(N(CC(C)C)S(=O)(=O)c2ccc(OCC3CCOCC3)c(SC)c2)cc1` [compound 25, N-(4-ethylphenyl)-N-isobutyl-3-methylsulfanyl-4-(tetrahydropyran-4-ylmethoxy)benzenesulfonamide] returned an IC50 of 100 to 1000 nM. For `CCc1ccc(N(CC(C)C)S(=O)(=O)c2ccc(S(=N)(=O)CC3CCOCC3)cc2)cc1` (stereo not drawn) [compound 28, N-(4-ethylphenyl)-N-isobutyl-4-(tetrahydropyran-4-ylmethanesulfoximimyl)benzenesulfonamide], the IC50 was more than 1000 nM. Compound `CCc1ccc(N(CC(C)C)S(=O)(=O)c2ccc(OCC3C4COCC43)c(S(C)(=N)=O)c2)cc1` (stereo not drawn) [compound 31, 4-((3-oxabicyclo[3.1.0]hexan-6-yl)methoxy)-N-(4-ethylphenyl)-N-isobutyl-3-(S-methylsulfonimidoyl)benzenesulfonamide] gave an IC50 of less than 100 nM. Compound `CCc1ccc(N(CC(C)C)S(=O)(=O)c2ccc(OCC3(F)COC3)c(S(C)(=N)=O)c2)cc1` (stereo not drawn) [compound 32, N-(4-eethylphenyl)-4-((3-fluorooxetan-3-yl)methoxy)-N-isobutyl-3-(S-methylsulfonimidoyl)benzenesulfonamide] showed an IC50 of more than 1000 nM. Compound `CCc1ccc(N(CC(C)C)S(=O)(=O)c2ccc(OC3CCN(C(=O)OC(C)(C)C)CC3)c(S(C)(=N)=O)c2)cc1` (stereo not drawn) [compound 33, tert-butyl 4-(4-(N-(4-ethylphenyl)-N-isobutylsulfamoyl)-2-(S-methylsulfonimidoyl)phenoxy)piperidine-1-carboxylate] had an IC50 of more than 1000 nM. The compound `CCc1ccc(N(CC(C)C)S(=O)(=O)c2ccc(OCC3(C)COC3)c(S(C)(=N)=O)c2)cc1` (stereo not drawn) [compound 34, N-(4-ethylphenyl)-N-isobutyl-4-((3-methyloxetan-3-yl)methoxy)-3-(S-methylsulfonimidoyl)benzenesulfonamide] registered an IC50 of more than 1000 nM. As for `CCc1ccc(N(CC(C)C)S(=O)(=O)c2ccc(OCC3CCN(C(=O)OC(C)(C)C)CC3)c(S(C)(=N)=O)c2)cc1` (stereo not drawn) [compound 36, tert-butyl 4-((4-(N-(4-ethylphenyl)-N-isobutylsulfamoyl)-2-(S-methylsulfonimidoyl)phenoxy)methyl)piperidine-1-carboxylate], the IC50 was more than 1000 nM. Compound `CCc1ccc(N(CC(C)C)S(=O)(=O)c2ccc(OCCc3ccno3)c(S(C)(=N)=O)c2)cc1` (stereo not drawn) [compound 38, N-(4-ethylphenyl)-N-isobutyl-4-(2-(isoxazol-5-yl)ethoxy)-3-(S-methylsulfonimidoyl)benzenesulfonamide] returned an IC50 of more than 1000 nM. Turning to `CCc1ccc(N(CC(C)C)S(=O)(=O)c2ccc(OCc3ccncc3)c(S(C)(=N)=O)c2)cc1` (stereo not drawn) [compound 39, N-(4-ethylphenyl)-N-isobutyl-3-(S-methylsulfonimidoyl)-4-(pyridin-4-ylmethoxy)benzenesulfonamide], the IC50 was more than 1000 nM.

As for `CCc1ccc(N(CC(C)C)S(=O)(=O)c2ccc(OCC(O)CO)c(S(C)(=N)=O)c2)cc1` (stereo not drawn) [compound 40, 4-(2,3-dihydroxypropoxy)-N-(4-ethylphenyl)-N-isobutyl-3-(S-methylsulfonimidoyl)benzenesulfonamide], the IC50 is more than 1000 nM. Regarding `CCc1ccc(N(CC(C)C)S(=O)(=O)c2ccc(OCc3cc(C)nc(C)c3)c(S(C)(=N)=O)c2)cc1` (stereo not drawn) [compound 43, 4-((2,6-dimethylpyridin-4-yl)methoxy)-N-(4-ethylphenyl)-N-isobutyl-3-(S-methylsulfonimidoyl)benzenesulfonamide], the IC50 is more than 1000 nM. `CCc1ccc(N(CC(C)C)S(=O)(=O)c2ccc(OCc3ccc(F)cc3F)c(S(C)(=N)=O)c2)cc1` (stereo not drawn) [compound 45, 4-((2,4-difluorobenzyl)oxy)-N-(4-ethylphenyl)-N-isobutyl-3-(S-methylsulfonimidoyl)benzenesulfonamide]: the IC50 is more than 1000 nM. The value for `CCc1ccc(N(CC(C)C)S(=O)(=O)c2ccc(OCC3CCNCC3)c(S(C)(=N)=O)c2)cc1` (stereo not drawn) [compound 49, N-(4-ethylphenyl)-N-isobutyl-3-(S-methylsulfonimidoyl)-4-(piperidin-4-ylmethoxy)benzenesulfonamide] was more than 1000 nM; that for `CCc1ccc(N(CC(C)C)S(=O)(=O)c2ccc(OCC3CCN(C(C)=O)CC3)c(S(C)(=N)=O)c2)cc1` (stereo not drawn) [compound 50, 4-((1-acetylpiperidin-4-yl)methoxy)-N-(4-ethylphenyl)-N-isobutyl-3-(S-methylsulfonimidoyl)benzenesulfonamide] was more than 1000 nM; that for `CCc1ccc(N(CC(C)C)S(=O)(=O)c2ccc(OCC3CCN(S(C)(=O)=O)CC3)c(S(C)(=N)=O)c2)cc1` (stereo not drawn) [compound 51] was more than 1000 nM. The value for `CCc1ccc(N(CC(C)C)S(=O)(=O)c2ccc(NCC3COC3)c(S(C)(=N)=O)c2)cc1` (stereo not drawn) [compound 54, N-(4-ethylphenyl)-N-isobutyl-3-(S-methylsulfonimidoyl)-4-((oxetan-3-ylmethyl)amino)benzenesulfonamide] was 100 to 1000 nM; that for `CCc1ccc(N(CC(C)C)S(=O)(=O)c2ccc(NCC3CCS(=O)(=O)C3)c(S(C)(=N)=O)c2)cc1` (stereo not drawn) [compound 56, 4-(((1,1-dioxidotetrahydrothiophen-3-yl)methyl)amino)-N-(4-ethylphenyl)-N-isobutyl-3-(S-methylsulfonimidoyl)benzenesulfonamide] was 100 to 1000 nM; that for `CCc1ccc(N(CC(C)C)S(=O)(=O)c2ccc(NCC3CCS(=O)(=O)CC3)c(S(C)(=N)=O)c2)cc1` (stereo not drawn) [compound 57, 4-(((1,1-dioxidotetrahydro-2H-thiopyran-4-yl)methyl)amino)-N-(4-ethylphenyl)-N-isobutyl-3-(S-methylsulfonimidoyl)benzenesulfonamide] was more than 1000 nM.

Turning to `CCc1ccc(N(CC(C)C)S(=O)(=O)c2ccc(NCC3CCC(=O)NC3)c(S(C)(=N)=O)c2)cc1` (stereo not drawn) [compound 58, N-(4-ethylphenyl)-N-isobutyl-3-(S-methylsulfonimidoyl)-4-(((6-oxopiperidin-3-yl)methyl)amino)benzenesulfonamide], the IC50 is more than 1000 nM. In turn, `CCc1ccc(N(CC(C)C)S(=O)(=O)c2ccc(NCC3CNC(=O)C3)c(S(C)(=N)=O)c2)cc1` (stereo not drawn) [compound 59, N-(4-ethylphenyl)-N-isobutyl-3-(S-methylsulfonimidoyl)-4-(((5-oxopyrrolidin-3-yl)methyl)amino)benzenesulfonamide] registered an IC50 of 100 to 1000 nM. With `CCc1ccc(N(CC(C)C)S(=O)(=O)c2ccc(NCC3CCOCC3)c(S(N)(=O)=O)c2)cc1` [compound 67, 4-[(tetrahydropyran-4-ylmethyl)amino]benzene-1,3-disulfonic acid 3-amide 1-[(4-ethylphenyl)isobutylamide]] the figure was 100 to 1000 nM; with `CCc1ccc(N(CC(C)C)S(=O)(=O)c2ccc3c(c2)[S+]([O-])CCN3CC2CCOCC2)cc1` (stereo not drawn) [compound 71, 1-oxo-4-(tetrahydropyran-4-ylmethyl)-1,2,3,4-tetrahydro-1λ^4-benzo[1,4]thiazine-7-sulfonic acid (4-ethylphenyl)isobutylamide], more than 1000 nM; with `CCc1ccc(N(CC(C)C)S(=O)(=O)c2ccc3c(c2)sc(=O)n3CC2CCOCC2)cc1` [compound 72], 100 to 1000 nM.

For the origin of these results see patent US10457637B2, “Benzenesulfonamide derivatives as inverse agonists of retinoid-related orphan receptor gamma (RORγ(T))” (GALDERMA RESEARCH & DEVELOPMENT, priority 2014, dated 2019).
